# Laboratory results published in patent US8283373B2, “Inhibitors of cytosolic phospholipase A2” (Pfizer Inc., priority 2005, dated 2012).
# Key:
# [1] = test system: Ascaris suum antigen-induced bronchoconstriction and AHR; test: Sheep model of antigen-induced early and late-phase bronchoconstriction and AHR; assay type: in vivo
# Method: In addition to the allergen induced pulmonary inflammation models in rodents, allergen induced changes in lung function are often evaluated in allergic sheep. […] Studies performed in this animal model present strong evidence that the release of arachidonic acid metabolites plays an important role in the development of late bronchial responses to antigen challenge (See Abraham, W. M., et al, Respiration. 1989; 56:48-56). Thus, the compound of Example 10 was evaluated for effects on allergen induced changes in lung function In a sheep model of asthma.
# Allergen-induced reversible airway narrowing and AHR are two hallmark features of allergic asthma that can be examined in vivo in a sheep model of asthma. Studies performed in this animal model present strong evidence that the release of arachidonic acid metabolites plays an important role in the development of late bronchial responses to antigen challenge (See Abraham, W. M., et al., Respiration. 1989; 56:48-56). The release of leukotrienes through the LO pathway during the acute bronchial constriction after inhalation of Ascaris suum antigen represents the key factor for the initiation of the subsequent events, namely the late-phase response and the bronchial hyperreactivity. […] In addition, oral administration of a dual LTD4/TXB2 inhibitor can inhibit both the early and late-phase response, as well as AHR to carbachol and histamine (See Abraham, W. M., et al., J Pharmacol Exp Ther. 1988; 247:1004-1011).
# The compound of Example 10 was administered at 3 mg/kg BID (PO) 24 h prior to challenge, 2 h prior to challenge and 8 hr post challenge. The mean % increase in airway resistance for 3 individual sheep over the ensuing 8 h period was determined.
# The following day, airway hyperresponsiveness (AHR) was assessed in these same treated sheep by determining the cumulative carbachol concentration that increased specific lung resistance by 400%. […] In an extended dosing regimen, compound of Example 10 was administered at 3 mg/kg PO BID for 4 days before challenge, 2 hours before challenge on the fifth day and 8 hr post challenge.
# cPLA2α = target: T1, cPLA2α (Homo sapiens, UniProt P47712); test: GLU Micelle Assay; assay type: biochemical
# T1 sequence (P47712 1-749): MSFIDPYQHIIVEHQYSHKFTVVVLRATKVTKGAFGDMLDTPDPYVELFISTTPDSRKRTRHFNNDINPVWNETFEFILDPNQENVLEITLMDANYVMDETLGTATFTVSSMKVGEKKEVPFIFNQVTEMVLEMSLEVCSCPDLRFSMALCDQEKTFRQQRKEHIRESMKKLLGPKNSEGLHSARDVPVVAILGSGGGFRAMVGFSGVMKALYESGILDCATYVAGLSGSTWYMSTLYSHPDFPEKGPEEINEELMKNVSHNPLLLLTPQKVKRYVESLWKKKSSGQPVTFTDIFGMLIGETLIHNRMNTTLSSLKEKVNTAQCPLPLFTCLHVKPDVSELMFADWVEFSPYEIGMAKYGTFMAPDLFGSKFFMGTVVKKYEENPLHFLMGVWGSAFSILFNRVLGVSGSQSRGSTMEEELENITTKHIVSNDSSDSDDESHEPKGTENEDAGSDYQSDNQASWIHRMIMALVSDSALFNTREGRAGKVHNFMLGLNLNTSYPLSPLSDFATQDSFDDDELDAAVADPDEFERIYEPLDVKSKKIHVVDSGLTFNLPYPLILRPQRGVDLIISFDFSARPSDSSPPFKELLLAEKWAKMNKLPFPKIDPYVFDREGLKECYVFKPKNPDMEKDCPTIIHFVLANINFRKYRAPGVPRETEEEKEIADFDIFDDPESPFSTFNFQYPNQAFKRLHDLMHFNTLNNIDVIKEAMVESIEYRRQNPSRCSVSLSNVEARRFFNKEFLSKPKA
# Summary of the method: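 Fluorogenic micelle assay with 1 μg/ml cPLA2α and 90 μM GLU substrate plus 120 μM DTPC in 940 μM Triton X-100, 50 mM Hepes pH 7.4, 0.3 mM EDTA, 1 mM CaCl2, 300 mM KCl. Fluorescence (ex 355/em 460) was read every 4 min for 84 min. Percent inhibition came from slopes relative to positive and negative controls.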
# [2] = 3 mg/kg BID PO 24 h and 2 h prior to and 8 hr post challenge
# [3] = extended regimen: 3 mg/kg PO BID 4 days before challenge, 2 hours before and 8 hr post
smiles,measurement,setting,value
"O=C(O)c1ccc(CCCc2c(CCNS(=O)(=O)Cc3ccccc3C(F)(F)F)n(C(c3ccccc3)c3ccccc3)c3ccc(Cl)cc23)cc1 [Example 10, 4-(3-{5-chloro-1-(diphenylmethyl)-2-[2-({[2-(trifluoromethyl)benzyl]sulfonyl}amino)ethyl]-1H-indol-3-yl}propyl)benzoic acid]",airway hyperresponsiveness (AHR) to carbachol,[1]; [2],complete blockade
same,late asthmatic response (airway resistance),[1]; [2],Complete blockade
same,AHR to aerosolized carbachol,[1]; [3],complete blockade
same,early asthmatic response,[1]; [3],modest but statistically significant inhibition
same,late-phase response,[1]; [3],complete blockade
same,IC50,cPLA2α,9 nM
